Legend:
[1] = tested on: ICAM-1 expression in BAECs; assay: ICAM-1 expression in BAECs by ELISA; type: cell-based; details: 25 μM, 24 hours, 20% bovine calf serum, data not shown
Description: The effect of HNE and ascorbylated HNE on endothelial activation also was determined. To this end, BAECs were exposed to 25 μM HNE or ascorbylated HNE for 24 hours in the presence of 20% bovine calf serum, and subsequently ICAM-1 expression was measured by ELISA. […] In contrast, HNE was reported to inhibit LPS-induced NFκB activation in human monocytic cells (Herbst et al. 1999; Page et al. 1999) and constitutive ICAM-1 expression in HUVECs (Herbst et al. 1999). […] However, unlike the incubation conditions with 20% bovine calf serum, the experiments by Herbst and colleagues were conducted in a serum-free environment in order to avoid inactivation of HNE by serum proteins (see above).

[2] = tested on: human aortic endothelial cells (HAECs); assay: MTT assay, cytotoxicity in human aortic endothelial cells; type: cell-based; details: 25 to 100 μM, up to 66 hours, 20% bovine calf serum
Text: FIG. 13 illustrates the results of cytotoxicity studies in human aortic endothelial cells (HAECs) using the MTT assay (described below). […] The observed cytotoxic effect of HNE is relatively moderate, which is likely due to the presence of 20% bovine calf serum in the culture medium of HAECs, causing inactivation of HNE by adduction to serum proteins and other serum constituents. […] FIG. 13, panel C further illustrates the large difference in cytotoxicity between HNE and ascorbylated HNE in HAECs treated with both compounds at 75 or 100 μM for 42 hours. The results of these experiments strongly support the hypothesis that ascorbylation represents a detoxification pathway for HNE and other electrophilic LPO products.
With reference to […], Cells were grown to confluence in 96-well plates and exposed to 25, 50, 75 or 100 μM HNE or ascorbylated HNE for up to 66 hours (Panels A and B). Cell viability was assessed by spectrophotometric (590 nm) measurement of the reduction of MTT (3-[4,5-dimethylthiazol-2-yl]-2,5-diphenyltetrazolium bromide) by dehydrogenases in respiring mitochondria, and expressed as a percentage of the control (1.0% ethanol). […] The data are presented as mean of five observations (±SD). Asc-HNE=ascorbylated HNE; numbers in legends refer to μM concentrations.

[3] = tested on: ICAM-1 expression in HUVECs; details: serum-free environment; cited from earlier work
[4] = Stability of ascorbyl-HNE conjugate in stored plasma; type: physicochemical, human
Description: A problem with current biomarkers of oxidative stress is the formation of ex vivo-artifacts arising from sample instability or sample handling. The presence of the ascorbyl-HNE adduct in plasma is not due to an ex vivo-artifact. Moreover, the stability of the ascorbyl-HNE adduct was confirmed to ensure that its concentration was not fluctuating as a function of time. Specifically, aliquots of a plasma sample were analyzed over a time period of one month.

[5] = tested on: ICAM-1 expression in HAECs; assay: ICAM-1 expression in HAECs by ELISA; type: cell-based, human; details: 35 μM, 24 hours, 5% bovine calf serum
Text: This example establishes that vitamin C has the ability to abolish HPODE-induced endothelial activation. HAECs were exposed to HPODE or HPODE pretreated with ascorbate. […] Thus, vitamin C pre-treatment of HPODE leads to inactivation of HPODE with respect to its effect on ICAM-1 expression, which supports the proposition that vitamin C-induced degradation of LOOHs and subsequent ascorbylation of the resultant LPO products represents a pathway for elimination and detoxification of LOOHs and their degradation products (Scheme 2). […] As mentioned earlier, there is extensive data in the literature showing that specific LPO products elicit endothelial activation.
With reference to FIG. 14 HPODE was prepared by soybean lipoxygenase treatment of a solution of linoleic acid in phosphate buffer, pH 8.2, with stirring and air bubbling. […] The solution was acidified, and the mixture of HPODE-derived products was recovered from the aqueous solution by extraction with ethyl acetate. The combined ethyl acetate layers were washed with water to remove traces of ascorbic acid. The residue on evaporation was dissolved in 1.0 ml of ethanol, and the solution termed ‘ascorbate-treated HPODE’. […] Activation of HAECs was measured by quantifying ICAM-1 using a commercially available ELISA kit (Zhang and Frei 2001).

| Molecule | change of ICAM-1 expression compared to the vehicle control [1] | cell viability of HAECs (MTT assay) [2] | concentration at which the inhibitory effect on ICAM-1 expression was observed [3] [µM] | stability of the conjugate in plasma ([4]; 4° C.) | change in the ascorbyl-HNE conjugate concentration ([4]; plasma aliquots over one month at 4° C.) [%] | ICAM-1 expression compared to the vehicle control [5] |
| --- | --- | --- | --- | --- | --- | --- |
| CCCCCC(O)C=CC=O (centres unmarked) [HNE, 4-hydroxy-2-nonenal] | Neither HNE nor ascorbylated HNE caused a change of ICAM-1 expression | progressive decrease in cell viability | ≥ 5 | – | – | – |
| CCCCCC1OC(O)CC1C1(O)C(=O)OC2C(O)COC21O (stereo not drawn) [ascorbyl-HNE conjugate, 3,3α,6-trihydroxy-3-(5-hydroxy 2-pentyl-tetrahydro-furan-3-yl)-tetrahydro-furo[3,2-b]furan-2-one] | Neither HNE nor ascorbylated HNE caused a change of ICAM-1 expression | not cytotoxic at any of the concentrations tested | – | stable for at least a month | 5.2 | – |
| hydroperoxy octadecadienoic acids [HPODE] | – | – | – | – | – | increase in ICAM-1 expression |

Reference: US20090104705A1, “Ascorbic acid conjugates” (priority 2005, published 2009)
